Target: eNOS promoter
Assay: Activation of eNOS transcription (eNOS promoter firefly luciferase reporter)
Assay type: cell-based
Settings: EC50 of transcription induction ratio (TIR) vs compound concentration, determined graphically; stably transfected human endothelial cell line, 18 h incubation
Method: Activation of eNOS transcription was measured as described in detail in Li et al. “Activation of protein kinase C alpha and/or epsilon enhances transcription of the human endothelial nitric oxide synthase gene”, Mol. Pharmacol. 1998; 53: 630-637. Briefly, a 3.5 kB long fragment 5′ of the starting codon of the eNOS gene was cloned, sequenced and cloned in firefly luciferase expression plasmids to monitor activation of the eNOS promoter by reporter gene activity. A human endothelial cell line stable transfected and expressing this promoter-reporter construct was used for compound testing. Cells were incubated for 18 h with compounds.
All compounds were dissolved in sterile DMSO. A final concentration of 0.5% DMSO in complete medium was allowed. Induction of reporter gene expression in these cells was measured using a standard luciferase assay system (Promega, Cat. No E150) according to the manufacturer's instructions. Luciferase induction in cells incubated with compounds were compared to those incubated with solvent alone. The ratio of both activities (transcription induction ratio, TIR) was plotted as a function of compound concentration. Typically, TIR values started at low concentrations at a ratio of 1, indicating no compound effect, and extended up to a maximum TIR value TIR(max) which indicates the increase of the eNOS transcription. EC50 values of transcription induction ratios as a function of compound concentration were determined graphically.

`O=C(N[C@@H]1CCc2ccccc2C1)c1cnn(-c2ccc(Cl)cc2)c1C(F)(F)F` [Compound 33, 1-(4-Chloro-phenyl)-5-trifluoromethyl-1H-pyrazole-4-carboxylic acid N-(R)-(1,2,3,4-tetrahydro-naphthalen-2-yl)-amide] was tested, and the EC50 was 7 µM.
`Cc1cc(C)c(C(=O)N[C@@H]2CCc3ccccc3C2)c(N)n1` [Compound 43, 2-Amino-4,6-dimethyl-N-(R)-1,2,3,4-tetrahydro-naphthalen-2-yl-nicotinamide] showed an EC50 of 20.6 µM.
With `O=C(N[C@@H]1CCc2ccccc2C1)c1ccc(Cl)nc1` [Compound 14, 6-Chloro-N-(R)-1,2,3,4-tetrahydro-naphthalen-2-yl-nicotinamide] the EC50 was 5.93 µM.
Work on `O=C(N[C@H]1CCc2ccccc2C1)c1cnn(-c2ccc(Cl)cc2)c1C(F)(F)F` [Compound 34, 1-(4-Chloro-phenyl)-5-trifluoromethyl-1H-pyrazole-4-carboxylic acid N-(S)-(1,2,3,4-tetrahydro-naphthalen-2-yl)-amide] yielded an EC50 of 9.97 µM.
With `O=C(N[C@H]1CCc2ccccc2C1)c1ccc(C(F)(F)F)nc1` [Compound 51, N-(S)-1,2,3,4-Tetrahydro-naphthalen-2-yl-6-trifluoromethyl-nicotinamide] the EC50 was 1.6 µM.
`Cc1ccc(C(=O)N[C@H]2CCc3ccccc3C2)c(Cl)n1` [Compound 40, 2-Chloro-6-methyl-N-(S)-1,2,3,4-tetrahydro-naphthalen-2-yl-nicotinamide] showed an EC50 of 13.6 µM.
For `Nc1ncccc1C(=O)N[C@@H]1CCc2ccccc2C1` [Compound 17, 2-Amino-N-(R)-1,2,3,4-tetrahydro-naphthalen-2-yl-nicotinamide], the EC50 was 1.96 µM.
`O=C(N[C@H]1CCc2ccccc2C1)c1ccncc1` [Compound 69, (S)-N-(1,2,3,4-Tetrahydro-naphthalen-2-yl)-isonicotinamide] showed an EC50 of 0.19 µM.
Compound `O=C(N[C@@H]1CCc2ccccc2C1)c1ccc(C(F)(F)F)nc1` [Compound 50, N-(R)-1,2,3,4-Tetrahydro-naphthalen-2-yl-6-trifluoromethyl-nicotinamide] has an EC50 of 24.6 µM.
`Cc1ncccc1C(=O)N[C@@H]1CCc2ccccc2C1` [Compound 27, 2-Methyl-N-(R)-1,2,3,4-tetrahydro-naphthalen-2-yl-nicotinamide] showed an EC50 of 0.18 µM.
Compound `COc1cccc2c1CC[C@H](NC(=O)c1ccc(F)cc1)C2` [Compound 7, (S)-N-(5-Methoxy-1,2,3,4-tetrahydro-naphth-2-yl)-4-fluoro-benzamide] has an EC50 of 6 µM.
Compound `O=C(N[C@H]1CCc2ccccc2C1)c1ccc2[nH]nnc2c1` [Compound 26, 1H-Benzotriazole-5-carboxylic acid N-(S)-(1,2,3,4-tetrahydro-naphthalen-2-yl)-amide] has an EC50 of 15.1 µM.
For `O=C(N[C@@H]1CCc2ccccc2C1)c1cc2sccc2nc1C(F)(F)F` [Compound 47, 5-Trifluoromethyl-thieno[3,2-b]pyridine-6-carboxylic acid-N-(R)-(1,2,3,4-tetrahydro-naphthalen-2-yl)-amide], the EC50 was 35.2 µM.
With `Cc1ccc(C(=O)N[C@@H]2CCc3ccccc3C2)c(Cl)n1` [Compound 39, 2-Chloro-6-methyl-N-(R)-1,2,3,4-tetrahydro-naphthalen-2-yl-nicotinamide] the EC50 was 28.3 µM.
For `O=C(N[C@H]1CCc2ccccc2C1)c1cncc(-c2cccs2)c1` [Compound 63, N-(S)-1,2,3,4-Tetrahydro-naphthalen-2-yl-5-thiophen-2-yl-nicotinamide], the EC50 was 0.3 µM.
`Cc1nc(C(F)(F)F)c(C(=O)N[C@@H]2CCc3ccccc3C2)s1` [Compound 45, 2-Methyl-4-trifluoromethyl-thiazole-5-carboxylic acid N-(R)-(1,2,3,4-tetrahydro-naphthalen-2-yl)-amide] gave an EC50 of 0.29 µM.
Compound `Cc1ccc(C(=O)N[C@H]2CCc3ccccc3C2)cn1` [Compound 20, 6-Methyl-N-(S)-1,2,3,4-tetrahydro-naphthalen-2-yl-nicotinamide] has an EC50 of 24.7 µM.
`O=C(N[C@H]1CCc2ccccc2C1)c1cccc2[nH]ccc12` [Compound 22, 1H-Indole-4-carboxylic acid-N-(S)-(1,2,3,4-tetrahydro-naphthalen-2-yl)-amide] gave an EC50 of 8.82 µM.
`O=C(N[C@@H]1CCc2ccccc2C1)c1cncc(-c2cccs2)c1` [Compound 62, N-(R)-1,2,3,4-Tetrahydro-naphthalen-2-yl-5-thiophen-2-yl-nicotinamide] showed an EC50 of 4.47 µM.
`O=C(N[C@@H]1CCc2ccccc2C1)c1ccc2[nH]cnc2c1` [Compound 23, 1H-Benzoimidazole-5-carboxylic acid N-(R)-(1,2,3,4-tetrahydro-naphthalen-2-yl)-amide] gave an EC50 of 11.5 µM.
`N#Cc1ccc(C(=O)N[C@@H]2CCc3ccccc3C2)cn1` [Compound 56, 6-Cyano-N-(R)-1,2,3,4-tetrahydro-naphthalen-2-yl-nicotinamide] showed an EC50 of 2.75 µM.
`Cc1cnc(C(=O)N[C@H]2CCc3ccccc3C2)cn1` [Compound 36, 5-Methyl-pyrazine-2-carboxylic acid N-(S)-(1,2,3,4-tetrahydro-naphthalen-2-yl)-amide] was tested, and the EC50 was 0.33 µM.
`O=C(N[C@@H]1CCc2ccccc2C1)c1onc2ccccc12` [Compound 64, Benzo[c]isoxazole-3-carboxylic acid N-(R)-(1,2,3,4-tetrahydro-naphthalen-2-yl)-amide] showed an EC50 of 15.2 µM.
In the case of `CCCc1c(C(=O)N[C@@H]2CCc3ccccc3C2)cnn1-c1cc(Cl)cc(Cl)c1` [Compound 66, 1-(3,5-Dichloro-phenyl)-5-propyl-1H-pyrazole-4-carboxylic acid N-(R)-(1,2,3,4-tetrahydro-naphthalen-2-yl)-amide], the EC50 is reported as 5.86 µM.
`Cc1nc(C(F)(F)F)ccc1C(=O)N[C@@H]1CCc2ccccc2C1` [Compound 54, 2-Methyl-N-(R)-1,2,3,4-tetrahydro-naphthalen-2-yl-6-trifluoromethyl-nicotinamide] was tested, and the EC50 was 16.3 µM.
For `Cc1nc(-c2ccccc2)sc1C(=O)N[C@@H]1CCc2ccccc2C1` [Compound 41, 4-Methyl-2-phenyl-thiazole-5-carboxylic acid N-(R)-(1,2,3,4-tetrahydro-naphthalen-2-yl)-amide], the EC50 was 20.4 µM.
Compound `CN(C)c1cccc(C(=O)N[C@@H]2CCc3ccccc3C2)c1` [Compound 10, 3-Dimethylamino-N-(R)-1,2,3,4-tetrahydro-naphthalen-2-yl-benzamide] has an EC50 of 9.56 µM.
`O=C(N[C@@H]1CCc2cccc(Br)c2C1)c1ccc(F)cc1` [Compound 4, (R)-N-(8-Bromo-1,2,3,4-tetrahydro-naphth-2-yl)-4-fluoro-benzamide] gave an EC50 of over 30 µM.
Compound `Cc1ccc(C(=O)N[C@@H]2CCc3ccccc3C2)cn1` [Compound 19, 6-Methyl-N-(R)-1,2,3,4-tetrahydro-naphthalen-2-yl-nicotinamide] has an EC50 of 10.9 µM.
In the case of `CN(C)c1cccc(C(=O)N[C@H]2CCc3ccccc3C2)c1` [Compound 11, 3-Dimethylamino-N-(S)-1,2,3,4-tetrahydro-naphthalen-2-yl-benzamide], the EC50 is reported as 12.8 µM.
`Cc1nc(C)c(C(=O)N[C@@H]2CCc3ccccc3C2)s1` [Compound 29, 2,4-Dimethyl-thiazole-5-carboxylic acid N-(R)-(1,2,3,4-tetrahydro-naphthalen-2-yl)-amide] was tested, and the EC50 was 10.5 µM.
`O=C(N[C@H]1CCc2cccc(Br)c2C1)c1ccc(F)cc1` [Compound 5, (S)-N-(8-Bromo-1,2,3,4-tetrahydro-naphth-2-yl)-4-fluoro-benzamide] showed an EC50 of 10 µM.
With `Cc1nc(-c2ccccc2)sc1C(=O)N[C@H]1CCc2ccccc2C1` [Compound 42] the EC50 was 16 µM.
For `COc1cccc2c1CC[C@@H](NC(=O)c1ccc(F)cc1)C2` [Compound 6, (R)-N-(5-Methoxy-1,2,3,4-tetrahydro-naphth-2-yl)-4-fluoro-benzamide], the EC50 was 1.5 µM.
`Cc1nc(C)c(C(=O)N[C@H]2CCc3ccccc3C2)s1` [Compound 30, 2,4-Dimethyl-thiazole-5-carboxylic acid N-(S)-(1,2,3,4-tetrahydro-naphthalen-2-yl)-amide] gave an EC50 of 81.8 µM.
`Cc1c(C(=O)N[C@@H]2CCc3ccccc3C2)cnn1-c1ccccc1` [Compound 31, 5-Methyl-1-phenyl-1H-pyrazole-4-carboxylic acid N-(R)-(1,2,3,4-tetrahydro-naphthalen-2-yl)-amide] gave an EC50 of 10.9 µM.
`Cc1cnc(C(=O)N[C@@H]2CCc3ccccc3C2)cn1` [Compound 35, 5-Methyl-pyrazine-2-carboxylic acid N-(R)-(1,2,3,4-tetrahydro-naphthalen-2-yl)-amide] showed an EC50 of 14.9 µM.
For `O=C(N[C@@H]1CCc2ccccc2C1)c1ccc2cc[nH]c2c1` [Compound 48, 1H-Indole-6-carboxylic acid N-(R)-(1,2,3,4-tetrahydro-naphthalen-2-yl)-amide], the EC50 was 15.6 µM.
Compound `Cc1c(C(=O)N[C@H]2CCc3ccccc3C2)cnn1-c1ccccc1` [Compound 32, 5-Methyl-1-phenyl-1H-pyrazole-4-carboxylic acid N-(S)-(1,2,3,4-tetrahydro-naphthalen-2-yl)-amide] has an EC50 of 1.13 µM.
`Cc1nc(C(F)(F)F)c(C(=O)N[C@H]2CCc3ccccc3C2)s1` [Compound 46, 2-Methyl-4-trifluoromethyl-thiazole-5-carboxylic acid-N-(S)-(1,2,3,4-tetrahydro-naphthalen-2-yl)-amide] showed an EC50 of 0.41 µM.
`COc1ccc(-n2ncc(C(=O)N[C@@H]3CCc4ccccc4C3)c2C)cc1` [Compound 60, 1-(4-Methoxy-phenyl)-5-methyl-1H-pyrazole-4-carboxylic acid N-(R)-(1,2,3,4-tetrahydro-naphthalen-2-yl)-amide] was tested, and the EC50 was 4.12 µM.

— patent publication US6949556B2, “Acylated 1,2,3,4-tetrahydronaphthyl amines and their use as pharmaceutical agents” (Aventis Pharma Deutschland GmbH, priority 2001, dated 2005)
